This is an account of results in US20160287589A1, “SUBSTITUTED-IMIDAZOPYRIDAZINES” (BAYER PHARMA AKTIENGESELLSCHAFT, priority 2013, published 2016).

In experiment [1] the target is T1, MKNK1 (Homo sapiens, UniProt Q9BUB5, T385D).
T1 construct: GST (N); purchased Carna Biosciences 02-145; host or cells: insect cells (baculovirus expression system)
Nature of the experiment: MKNK1 kinase high ATP assay (TR-FRET-based). Format: biochemical. The conditions noted are these: 2 mM ATP, 15 min preincubation. How it is done:
MKNK1 Kinase High ATP Assay
MKNK1-inhibitory activity at high ATP of compounds of the present invention after their preincubation with MKNK1 was quantified employing the TR-FRET-based MKNK1 high ATP assay as described in the following paragraphs.
A recombinant fusion protein of Glutathione-S-Transferase (GST, N-terminally) and human full-length MKNK1 (amino acids 1-424 and T344D of accession number BAA 19885.1), expressed in insect cells using baculovirus expression system and purified via glutathione sepharose affinity chromatography, was purchased from Carna Biosciences (product no 02-145) and used as enzyme. As substrate for the kinase reaction the biotinylated peptide biotin-Ahx-IKKRKLTRRKSLKG (C-terminus in amide form) was used, which can be purchased e.g. from the company Biosyntan (Berlin-Buch, Germany).
(§1) For the assay 50 nL of a 100 fold concentrated solution of the test compound in DMSO was pipetted into a black low volume 384 well microtiter plate (Greiner Bio-One, Frickenhausen, Germany), 2 μL of a solution of MKNK1 in aqueous assay buffer [50 mM HEPES pH 7.5, 5 mM magnesium chloride, 1.0 mM dithiothreitol, 0.005% (v/v) Nonidet-P40 (Sigma)] was added and the mixture was incubated for 15 min at 22° C. to allow pre-binding of the test compounds to the enzyme before the start of the kinase reaction. Then the kinase reaction was started by the addition of 3 μL of a solution of adenosine-tri-phosphate (ATP, 3.3 mM=>final conc. in the 5 μL assay volume is 2 mM) and substrate (0.1 μM=>final conc. in the 5 μL assay volume is 0.06 μM) in assay buffer and the resulting mixture was incubated for a reaction time of 30 min at 22° C. The concentration of MKNK1 was adjusted depending of the activity of the enzyme lot and was chosen appropriate to have the assay in the linear range, typical concentrations were in the range of 0.003 μg/mL. The reaction was stopped by the addition of 5 μL of a solution of TR-FRET detection reagents (5 nM streptavidine-XL665 [Cisbio Bioassays, Codolet, France] and 1 nM anti-ribosomal protein S6 (pSer236)-antibody from Invitrogen [#44921G] and 1 nM LANCE EU-W1024 labeled ProteinG [Perkin-Elmer, product no. AD0071]) in an aqueous EDTA-solution (100 mM EDTA, 0.1% (w/v) bovine serum albumin in 50 mM HEPES pH 7.5).
(§2) The resulting mixture was incubated for 1 h at 22° C. to allow the formation of complex between the phosphorylated biotinylated peptide and the detection reagents. Subsequently the amount of phosphorylated substrate was evaluated by measurement of the resonance energy transfer from the Eu-chelate to the streptavidine-XL. Therefore, the fluorescence emissions at 620 nm and 665 nm after excitation at 350 nm were measured in a TR-FRET reader, e.g. a Rubystar (BMG Labtechnologies, Offenburg, Germany) or a Viewlux (Perkin-Elmer). The ratio of the emissions at 665 nm and at […] was taken as the measure for the amount of phosphorylated substrate. The data were normalised (enzyme reaction without inhibitor=0% inhibition, all other assay components but no enzyme=100% inhibition).
For orientation: Time-resolved FRET reads energy transfer from a long-lived donor to a nearby acceptor.

Experiment [2] has as its target T1, MKNK1. Briefly: MKNK1 kinase assay (MKNK1 TR-FRET assay). The format is biochemical. The conditions noted are these: 10 μM ATP, 15 min preincubation.
From the text: MKNK1-inhibitory activity of compounds of the present invention was quantified employing the MKNK1 TR-FRET assay as described in the following paragraphs.
A recombinant fusion protein of Glutathione-S-Transferase (GST, N-terminally) and human full-lengt MKNK1 (amino acids 1-424 and T344D of accession number BAA 19885.1), expressed in insect cells using baculovirus expression system and purified via glutathione sepharose affinity chromatography, was purchased from Carna Biosciences (product no 02-145) and used as enzyme. As substrate for the kinase reaction the biotinylated peptide biotin-Ahx-IKKRKLTRRKSLKG (C-terminus in amide form) was used which can be purchased e.g. form the company Biosyntan (Berlin-Buch, Germany).
as §1, with “Then the kinase reaction was started by the addition of 3 μL of a solution of adenosine-tri-phosphate (ATP, 3.3 mM=>final conc. in the 5 μL assay volume is 2 mM) and substrate (0.1 μM=>final conc. in the 5 μL assay volume is 0.06 μM) in assay buffer and the resulting mixture was incubated for a reaction time of 30 min at 22° C.” left out, “[…].” for “0.003 μg/mL.”
as §2

The structures appear in SMILES notation.

T1 sequence (Q9BUB5 1-424 isoform Q9BUB5-2 T344D): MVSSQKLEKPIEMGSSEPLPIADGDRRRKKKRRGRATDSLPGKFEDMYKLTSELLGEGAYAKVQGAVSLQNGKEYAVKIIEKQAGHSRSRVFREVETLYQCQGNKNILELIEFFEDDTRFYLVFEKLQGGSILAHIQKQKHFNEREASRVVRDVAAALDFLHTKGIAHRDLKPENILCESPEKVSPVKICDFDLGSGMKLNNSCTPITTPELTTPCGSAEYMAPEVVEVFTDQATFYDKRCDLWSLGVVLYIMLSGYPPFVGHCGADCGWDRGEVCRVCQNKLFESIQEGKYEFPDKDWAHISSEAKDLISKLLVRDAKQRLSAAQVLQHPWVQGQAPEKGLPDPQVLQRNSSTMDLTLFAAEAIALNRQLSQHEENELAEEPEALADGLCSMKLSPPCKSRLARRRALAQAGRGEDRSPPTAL

Turning to `C[C@@H]1CN(c2cccc3oc(-c4cnc5ccc(OC[C@@H](C)N)nn45)cc23)CCO1` [II-69, (2R)-1-[(3-{4-[(2R)-2-methylmorpholin-4-yl]-1-benzofuran-2-yl}imidazo[1,2-b]pyridazin-6-yl)oxy]propan-2-amine], the figures for the concentration for half-maximal inhibition (IC50) against MKNK1 [1] (Table 2b) and on MKNK1 [2] (Table 1b) were 34.8 nM and 29.4 nM, respectively.
In the case of `COC[C@@H]1CCCN1c1nccc2oc(-c3cnc4ccc(O[C@H](C)CN)nn34)cc12` [III-136, (2R)-2-[(3-{4-[(2S)-2-(methoxymethyl)pyrrolidin-1-yl]furo[3,2-c]pyridin-2-yl}imidazo[1,2-b]pyridazin-6-yl)oxy]propan-1-amine], the IC50 (commonly the concentration that gives 50% inhibition) against MKNK1 [1] (Table 2c) amounted to 122 nM; against MKNK1 [2] (Table 1c), 52.5 nM.
On to `Cn1ccc(C(=O)NCCOc2ccc3ncc(-c4cc5ccccc5o4)n3n2)n1` [Example I-79, N-(2-{[3-(1-Benzofuran-2-yl)imidazo[1,2-b]-pyridazin-6-yl]oxy}ethyl)-1-methyl-1H-pyrazole-3-carboxamide], for which the IC50 against MKNK1 [1] (Table 2a) is 25.5 nM; on MKNK1 [2] (Table 1a) it was 10.1 nM.
Consider `CCCN(CCOC)c1nccc2oc(-c3cnc4ccc(OC[C@H]5CCC(=O)N5)nn34)cc12` [III-82, (5R)-5-{[(3-{4-[(2-Methoxyethyl)(propyl)amino]furo[3,2-c]pyridin-2-yl}imidazo[1,2-b]pyridazin-6-yl)oxy]methyl}pyrrolidin-2-one], for which the IC50 came out at 0.3 nM on MKNK1 [1] (Table 2c) and 0.4 nM against MKNK1 [2] (Table 1c).
For `COC[C@H]1CCCN1c1cccc2oc(-c3cnc4ccc(OC[C@@H]5CNCC(=O)N5)nn34)cc12` [II-47, (6S)-6-{[(3-{4-[(2R)-2-(methoxymethyl)pyrrolidin-1-yl]-1-benzofuran-2-yl}imidazo[1,2-b]pyridazin-6-yl)oxy]methyl}piperazin-2-one], the IC50 stood at 0.8 nM on MKNK1 [1] (Table 2b) and 4.8 nM at MKNK1 [2] (Table 1b).
On the same counts, the results for `C[C@H]1CN(c2cccc3oc(-c4cnc5ccc(O[C@H]6C[C@H](N)C6)nn45)cc23)CCO1` [II-43, trans-3-[(3-{4-[(2S)-2-methylmorpholin-4-yl]-1-benzofuran-2-yl}imidazo[1,2-b]pyridazin-6-yl)oxy]cyclobutanamine] are 37.5 nM and 21.7 nM.
Regarding `CCN(CCOC)c1nccc2oc(-c3cnc4ccc(OC[C@H](C)N)nn34)cc12` [III-18, 2-(6-{[(2S)-2-Aminopropyl]oxy}imidazo[1,2-b]pyridazin-3-yl)-N-ethyl-N-(2-methoxyethyl)furo[3,2-c]pyridin-4-amine], the IC50 came out at 0.9 nM on MKNK1 [1] (Table 2c) and 0.7 nM at MKNK1 [2] (Table 1c).
On the same counts, the results for `CS(=O)(=O)CCCOc1ccc2ncc(-c3cc4c(N5CCCC5)nccc4o3)n2n1` [III-44, 6-[3-(Methylsulfonyl)propoxy]-3-[4-(pyrrolidin-1-yl)furo[3,2-c]pyridin-2-yl]imidazo[1,2-b]pyridazine] are 14.9 nM and 5.5 nM.
`C[C@H](N)COc1ccc2ncc(-c3cc4c(N5CCC(CO)CC5)nccc4o3)n2n1` [III-22, {1-[2-(6-{[(2S)-2-Aminopropyl]oxy}imidazo[1,2-b]pyridazin-3-yl)furo[3,2-c]pyridin-4-yl]piperidin-4-yl}methanol]: the 50% inhibitory concentration (IC50) came to 14.1 nM against MKNK1 [1] (Table 2c) and 6.5 nM against MKNK1 [2] (Table 1c).
For `O=C(NCCOc1ccc2ncc(-c3cc4ccccc4o3)n2n1)c1cccs1` [Example I-64, N-(2-{[3-(1-Benzofuran-2-yl)imidazo[1,2-b]-pyridazin-6-yl]oxy}ethyl)thiophene-2-carboxamide], the half-maximal inhibitory concentration (IC50) at MKNK1 [1] (Table 2a) came out at 10.5 nM; against MKNK1 [2] (Table 1a) it was 4.7 nM.
As for `CC(C)(C)N1CCN(c2nccc3oc(-c4cnc5ccc(O[C@H]6C[C@H](N)C6)nn45)cc23)CC1` [III-99, trans-3-({3-[4-(4-tert-butylpiperazin-1-yl)furo[3,2-c]pyridin-2-yl]imidazo[1,2-b]pyridazin-6-yl}oxy)cyclobutanamine], the concentration for half-maximal inhibition (IC50) at MKNK1 [1] (Table 2c) came out at 45.6 nM; on MKNK1 [2] (Table 1c) it was 24.4 nM.
For `C[C@H]1CN(c2cccc3oc(-c4cnc5ccc(OC[C@H]6CCC(=O)N6)nn45)cc23)CCN1` [II-53, (5R)-5-{[(3-{4-[(3S)-3-methylpiperazin-1-yl]-1-benzofuran-2-yl}imidazo[1,2-b]pyridazin-6-yl)oxy]methyl}pyrrolidin-2-one], the IC50 at MKNK1 [1] (Table 2b) and against MKNK1 [2] (Table 1b) was 1.1 nM throughout.
As for `CC(C)(C)NC(=O)COc1ccc2ncc(-c3cc4ccccc4o3)n2n1` [Example I-37, 2-{[3-(1-Benzofuran-2-yl)imidazo[1,2-b]pyridazin-6-yl]oxy}-N-tert-butyl-acetamide], the IC50 against MKNK1 [1] (Table 2a) was found to be 70 nM; on MKNK1 [2] (Table 1a), 17 nM.
As for `CC(=O)NC[C@@H](C)Oc1ccc2ncc(-c3cc4ccccc4o3)n2n1` [Example I-80, N-[(2R)-2-{[3-(1-Benzofuran-2-yl)imidazo[1,2-b]pyridazin-6-yl]oxy}-propyl]acetamide], the 50% inhibitory concentration (IC50) against MKNK1 [1] (Table 2a) worked out at 47.7 nM; against MKNK1 [2] (Table 1a), 24.5 nM.
For the compound `C[C@H](N)COc1ccc2ncc(-c3cc4c(N5CCOCC5)cccc4o3)n2n1` [II-2, (2S)-1-({3-[4-(Morpholin-4-yl)-1-benzofuran-2-yl]imidazo[1,2-b]pyridazin-6-yl}oxy)propan-2-amine], the IC50 on MKNK1 [1] (Table 2b) was determined as 36 nM; at MKNK1 [2] (Table 1b) it was 16 nM.
As to `O=C(c1ccccc1)N1CCOC(COc2ccc3ncc(-c4cc5ccccc5o4)n3n2)C1` (centres unmarked) [Example I-16, [2-({[3-(1-benzofuran-2-yl)imidazo[1,2-b]pyridazin-6-yl]oxy}methyl)morpholin-4-yl](phenyl)methanone], the results for the concentration for half-maximal inhibition (IC50) on MKNK1 [1] (Table 2a) and against MKNK1 [2] (Table 1a) were 13.3 nM and 4.7 nM, respectively.
Turning to `CCN(CCOC(C)(C)C)c1nccc2oc(-c3cnc4ccc(OC[C@@H]5COCCN5)nn34)cc12` [III-39, N-(2-tert-Butoxyethyl)-N-ethyl-2-{6-[(3S)-morpholin-3-ylmethoxy]imidazo-[1,2-b]pyridazin-3-yl}furo[3,2-c]pyridin-4-amine], the half-maximal inhibitory concentration (IC50) turned out to be 0.5 nM at MKNK1 [1] (Table 2c) and 0.9 nM on MKNK1 [2] (Table 1c).
With `O=C(c1cccs1)N1CCC[C@H]1CCOc1ccc2ncc(-c3cc4ccccc4o3)n2n1` [Example I-43, [(2S)-2-(2-{[3-(1-Benzofuran-2-yl)imidazo[1,2-b]pyridazin-6-yl]oxy}ethyl)pyrrolidin-1-yl](thiophen-2-yl)methanone], the 50% inhibitory concentration (IC50) at MKNK1 [1] (Table 2a) amounted to 1.3 nM; on MKNK1 [2] (Table 1a), 1 nM.
`C[C@@H]1CN(c2cccc3oc(-c4cnc5ccc(OC[C@@H]6CCC(=O)N6)nn45)cc23)CCO1` [II-72, (5S)-5-{[(3-{4-[(2R)-2-methylmorpholin-4-yl]-1-benzofuran-2-yl}imidazo[1,2-b]pyridazin-6-yl)oxy]methyl}pyrrolidin-2-one]: the IC50 on MKNK1 [1] (Table 2b) stood at 33 nM; on MKNK1 [2] (Table 1b) it was 15.7 nM.
